Laboratory results from US7777038B2, “Carbostyril compound” (Otsuka Pharmaceutical Co., Ltd., priority 2004, dated 2010).

What was measured:
[1] = tested on: human Trefoil Factor 2 (hTFF2) gene; experiment: hTFF2 gene reporter assay (luciferase) using pGL3-hTFF2pro•pWL-neo/MKN-45 #6-2 cell line; assay type: cell-based; conditions: test compound concentration 10^−6 M; 24 hours culture; luciferase activity as control % of dimethylsulfoxide-added wells (100%)
Protocol: Transcription promoting activity on human Trefoil Factor 2 (hTFF2) gene of test compounds was evaluated by means of an hTFF2 gene reporter assay.
(1) Preparation of hTFF2 Gene Reporter Vector pGL3-hTFF2pro
DNA was extracted from HeLa cells (CCL-2, DAINIPPON PHARMACEUTICAL CO., LTD.) using a deoxyribonucleic acid (DNA) extraction kit (DNeasy™ Tissue Kit, manufactured by QIAGEN). The hTFF2 promoter region was amplified using the extracted DNA as a template by means of the polymerase chain reaction (PCR). The oligomers 5′-[…]-3′ and 5′-[…]-3′ were selected as PCR primers to be amplified, based on the report by Beck et al. (Beck S., Sommer P., Blin N., Gott P., 5′-flanking motifs control cell-specific expression of trefoil factor genes (TFF), Int. J. Mol. Med. 2(3), 353-361 (1998)). Platinum® Pfx DNA polymerase was used as DNA polymerase. The PCR was performed under the conditions of denaturing for 30 seconds at 95° C., annealing for 30 seconds at 55° C. and extending for 75 seconds at 68° C., and the procedures were repeated for 32 cycles.
The PCR products were separated and purified by 1% agarose gel electrophoresis, and cloned to a pCR-BluntII-TOPO vector attached to a cloning kit (Zero Blunt® TOPO® PCR Cloning Kit, manufactured by Invitrogen Corporation). The produced plasmid pCR-Blunt-TFF2pro was introduced into E. coli for transformation (TOP 10 Ultracomp™ Cells, manufactured by Invitrogen Corporation), and transformant strain pCR-Blunt-TFF2pro/TOP10 was selectively cultured in LB agar medium containing 30 μg/ml of Zeocin (Zeocin, manufactured by Invitrogen Corporation). The pCR-Blunt-TFF2pro/TOP10 was subjected to shaking culture in 50 ml of LB medium containing 30 μg/ml of Zeocin at 37° C. over night, and a plasmid was prepared using a plasmid preparation kit (Concert™ High Purity Midiprep System, manufactured by GIBCO BRL).
The nucleotide sequence of the PCR product cloned to the plasmid pCR-Blunt-TFF2pro was determined. The determined nucleotide sequence was compared with the counterpart of hTFF2 promoter region reported in a gene bank (GenBank accession AB038162). The nucleotide sequence of the MluI-HindIII region cloned in pCR-Blunt-TFF2pro was identical to GenBank accession AB038162 (FIG. 1).
The underlined portions indicate the recognition sequence (ACGCGT) of the restriction enzyme MluI and the recognition sequence (AAGCTT) of the restriction enzyme HindIII. The nucleotide sequences of the MluI-HindIII region are identical between the hTFF2 promoter region reported in GenBank and the PCR product cloned to the plasmid pCR-Blunt-TFF2pro. […]

[2] = tested on: acetic acid-induced gastric ulcers; experiment: Healing effects on rat models with acetic acid-induced gastric ulcers; assay type: in vivo; conditions: oral, once a day for 8 days, dose 10 mg/kg, ulcerated area vs vehicle (0.5% CMC)
Protocol: Healing Effects on Rat Models with Acetic Acid-Induced Gastric Ulcers
(1) Production of Gastric Ulcer by Acetic Acid
Rats were fasted from the previous day. A celiotomy was done in each rat under ether anesthesia, and the stomach was exteriorized. Subsequently, 20 μL of a 30% acetic acid solution was injected into the submucosa at the junction of the body of the glandular stomach and the pyloric antrum using a disposable syringe to produce a gastric ulcer.
(2) Test Compound Administration
Each test compound was suspended in a 0.5% carboxymethylcelullose (CMC) solution at concentrations of 0.75 or 2.5 mg/ml. The rats were orally administrated once a day for 8 days starting with the forth day from operation at doses of 3 or 10 mg/kg. A gastric tube and a syringe were used for the oral administration. […]
On the next day the vehicle and the test compound were finally administrated to the rats, the rats were sacrificed by exsanguination under anesthesia with ether, and each stomach was removed. The removed stomachs were fixed in 1% formalin for 15 minutes, dissected along the greater curvature of stomach to expose the ulcer, and the ulcerated area was measured. […]
The ulcerated area was measured under a stereo microscope (10×) with an ocular micrometer (1 mm^2/grid), and the percentage healing ratio was calculated. The percentage healing ratio was calculated by the following formula.

SMILES | melting point [°C] | TFF2 Production Promoting Activity [1] | Healing Ratio (%) [2] [%]
COC(=O)c1ccc(CN2C(=O)CCc3c(CC4SC(=O)NC4=O)ccc(OC)c32)cc1 (stereo not shown) [Example 25, 5-[8-methoxy-1-(4-methoxycarbonylbenzyl)-2-oxo-1,2,3,4-tetrahydroquinolin-5-ylmethyl]thiazolidine-2,4-dione] | 193.1 to 195.5 | ++ (a TFF2 production promoting activity of 1000% or higher at a test compound concentration of 10^−6 M) | 
COc1ccc(CC2SC(=O)NC2=O)c2ccc(=O)n(C)c12 (stereo not shown) [Example 1, 5-(8-methoxy-1-methyl-2-oxo-1,2-dihydroquinolin-5-ylmethyl)thiazolidine-2,4-dione] | 254 to 255 |  | >20
CCCCOc1ccc(CC2SC(=O)NC2=O)c2c1N(Cc1ccccc1)C(=O)CC2 (stereo not shown) [Example 32, 5-(1-benzyl-8-butoxy-2-oxo-1,2,3,4-tetrahydroquinolin-5-ylmethyl)thiazolidine-2,4-dione] |  | + (a TFF2 production promoting activity of 300% or higher at a test compound concentration of 10^−6 M) | 
COc1ccc(CC2SC(=S)NC2=O)c2c1N(CCC(C)C)C(=O)CC2 (stereo not shown) [Example 1315, 8-methoxy-1-(3-methylbutyl)-5-(4-oxo-2-thioxothiazolidin-5-ylmethyl)-3,4-dihydro-1H-quinolin-2-one] | 139.5 to 141 | ++ (a TFF2 production promoting activity of 1000% or higher at a test compound concentration of 10^−6 M) | 
